The values that follow come from ChEMBL document CHEMBL1131009, “Structure-activity relationship studies of novel carbocyclic influenza neuraminidase inhibitors” (J Med Chem, 1998).

This experiment concerns the target Neuraminidase (Influenza A virus (A/Puerto Rico/8/1934(H1N1)), UniProt P03468). As to the kind of experiment: Inhibitory activity against influenza A neuraminidase from influenza A/PR/8/34 (H1N1). On the set-up: species or system Influenza A virus (strain: A/PR/8/34).
A word on the IC50: it is the point on the concentration scale where inhibition reaches its midpoint. Read a high IC50 as lower potency. As for `CC[C@@H](C)O[C@@H]1C=C(C(=O)O)C[C@H](N)[C@H]1NC(C)=O`, the midpoint of inhibition, the IC50, lay at 10 nM.
Then `CCO[C@@H]1C=C(C(=O)O)C[C@H](N)[C@H]1NC(C)=O`, with 2000 nM; and `CC(=O)N[C@@H]1[C@@H](N)CC(C(=O)O)=C[C@H]1OC(Cc1ccccc1)Cc1ccccc1`, with over 1000 nM; and `CCC(CC)O[C@@H]1C(F)=C(C(=O)O)C[C@H](N)[C@H]1NC(C)=O`, with 3 nM.
Then `CCCCCCC[C@H](CC)O[C@@H]1C=C(C(=O)O)C[C@H](N)[C@H]1NC(C)=O`, with 1 nM; and `CC(=O)N[C@@H]1[C@@H](N)CC(C(=O)O)=C[C@H]1OCc1ccccc1`, with 620 nM.
Then `CCCO[C@@H]1C=C(C(=O)O)C[C@H](N=C(N)N)[C@H]1NC(C)=O`, with 2 nM.
In turn, `CCC(CC)O[C@@H]1C=C(C(=O)O)[C@@H](C)[C@H](N)[C@H]1NC(C)=O` displayed a half-maximal inhibitory concentration (IC50) of 1500 nM.
Then `CCCCCCCCCCO[C@@H]1C=C(C(=O)O)C[C@H](N)[C@H]1NC(C)=O`, with 600 nM.
The molecule `CO[C@@H]1C=C(C(=O)O)C[C@H](N)[C@H]1NC(C)=O` had a half-inhibitory concentration (IC50) of 3700 nM.
Take `CC(=O)N[C@H]1[C@H](O)C=C(C(=O)O)C[C@@H]1N=C(N)N`: the half-maximal inhibitory concentration (IC50) was 100 nM.
Then `CC[C@@H](CCC1CCCCC1)O[C@@H]1C=C(C(=O)O)C[C@H](N)[C@H]1NC(C)=O`, with 1 nM; and `CC[C@H](C)O[C@@H]1C=C(C(=O)O)C[C@H](N)[C@H]1NC(C)=O`, with 9 nM; and `CCCCCCCCCO[C@@H]1C=C(C(=O)O)C[C@H](N)[C@H]1NC(C)=O`, with 210 nM.
Then `CC(=O)N[C@@H]1[C@@H](N)CC(C(=O)O)=C[C@H]1OC(CCCc1ccccc1)CCCc1ccccc1`, with over 1000 nM.
`CC[C@@H](CC1CCCCC1)O[C@@H]1C=C(C(=O)O)C[C@H](N)[C@H]1NC(C)=O`: the IC50 was 16 nM.
Then `CCC(CC)O[C@@H]1C(C)=C(C(=O)O)C[C@H](N)[C@H]1NC(C)=O`, with 2300 nM; and `CCCO[C@@H]1C=C(C(=O)O)C[C@H](N)[C@H]1NC(C)=O`, with 180 nM; and `CC[C@H](CCc1ccccc1)O[C@@H]1C=C(C(=O)O)C[C@H](N)[C@H]1NC(C)=O`, with 12 nM.
Then `CC(=O)N[C@@H]1[C@@H](N)CC(C(=O)O)=C[C@H]1OCC(C)C`, with 200 nM.
Then `CCCCO[C@@H]1C=C(C(=O)O)C[C@H](N)[C@H]1NC(C)=O`, with 300 nM.
`CC(=O)N[C@@H]1[C@@H](N)CC(C(=O)O)=C[C@H]1OCCCc1ccc(-c2ccccc2)cc1`: the IC50 was determined as 90 nM. This IC50 lies about 3.3-fold lower than the previous one.
Consider `CC(=O)N[C@H]1[C@H](O)C=C(C(=O)O)C[C@@H]1N`, for which half-maximal inhibition (IC50) was put at 6300 nM.
Consider `CC[C@@H](CCc1ccccc1)O[C@@H]1C=C(C(=O)O)C[C@H](N)[C@H]1NC(C)=O`, for which the IC50 stood at 0.3 nM.
The molecule `CCCCCCCCO[C@@H]1C=C(C(=O)O)C[C@H](N)[C@H]1NC(C)=O` displayed an IC50 of 180 nM.
Then `CCCCO[C@@H]1C=C(C(=O)O)C[C@H](N=C(N)N)[C@H]1NC(C)=O`, with 3 nM; and `CCCCCCCO[C@@H]1C=C(C(=O)O)C[C@H](N)[C@H]1NC(C)=O`, with 270 nM; and `CCCCCCO[C@@H]1C=C(C(=O)O)C[C@H](N)[C@H]1NC(C)=O`, with 150 nM.
For the molecule `CCCCCO[C@@H]1C=C(C(=O)O)C[C@H](N)[C@H]1NC(C)=O`, inhibition was half-maximal at 200 nM (IC50).
Then `CC[C@@H](C)O[C@@H]1C=C(C(=O)O)C[C@H](NC(=N)N)[C@H]1NC(C)=O` (stereo in doubt; 61), with 0.5 nM.
